# Results: publication PMC11538131, “Degradation mechanism of difructose dianhydride III in Blautia species” (Applied Microbiology and Biotechnology, 2024)
# Biological target: T1, GH32 β-D-fructofuranosidase BBDE_1523 (Bifidobacterium dentium, UniProt D2Q5I2)
# T1 construct: gene fosC; cloned and expressed as BpDFA-IIIase (pET23a, C-terminal His-tag, E. coli BL21(DE3), TALON)
# T1 sequence (D2Q5I2 1-518): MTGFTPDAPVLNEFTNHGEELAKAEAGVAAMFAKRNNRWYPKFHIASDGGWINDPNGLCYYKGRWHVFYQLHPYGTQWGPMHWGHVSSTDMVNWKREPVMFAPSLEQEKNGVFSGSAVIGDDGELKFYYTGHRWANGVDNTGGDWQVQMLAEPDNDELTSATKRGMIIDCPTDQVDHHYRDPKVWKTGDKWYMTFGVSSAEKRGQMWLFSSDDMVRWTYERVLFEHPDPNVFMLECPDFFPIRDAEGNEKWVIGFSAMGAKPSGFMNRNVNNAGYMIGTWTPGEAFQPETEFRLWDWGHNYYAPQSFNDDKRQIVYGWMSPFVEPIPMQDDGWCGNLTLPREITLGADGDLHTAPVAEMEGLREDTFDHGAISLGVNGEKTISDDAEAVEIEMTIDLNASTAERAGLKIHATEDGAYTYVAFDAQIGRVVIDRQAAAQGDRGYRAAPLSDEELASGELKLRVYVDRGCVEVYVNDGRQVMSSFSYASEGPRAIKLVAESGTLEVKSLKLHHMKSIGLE
# Assay: TLC and HPAEC-PAD
# Format: biochemical
# Conditions: 50 mM acetate pH 6.0, 37 °C, overnight; together with BpDFA-IIIase
compound,measurement,value
OC[C@H]1O[C@@](CO)(OCC2(O)OC[C@@H](O)[C@@H](O)[C@@H]2O)[C@@H](O)[C@@H]1O (stereo partly shown) [inulobiose],TLC and HPAEC-PAD,DFA-III was completely hydrolyzed into D-fructose via inulobiose
